Article PMC7508583, “Discovery and Preclinical Development of Antigiardiasis Fumagillol Derivatives” (Antimicrobial Agents and Chemotherapy, 2020)
Converted amounts (≈) assume the structure as drawn. Like-named read-outs stand apart in the source and are kept apart here.

Tests used:
[1] = tested on: E. histolytica HM1:IMSS trophozoites; assay: Trophozoite growth inhibition, ATP content (ATPlite) assay; type: cell-based; details: Entamoeba histolytica, 72 h, read-out: Mean [IC50 ± SE(IC50)] E. histolytica HM1: IMSS
Procedure: (§1) Antigiardia assays followed by enzyme inhibition determination facilitated the selection of compounds for permeation and stability studies by in vitro methods, prior to advancing to in vivo studies. Compound potency was evaluated first by measuring G. lamblia trophozoite growth as a function of the compound concentration and calculating the IC50 values. Potency in Entamoeba histolytica trophozoites was also determined because of the early report that fumagillin cured amebiasis ([19]). The intent was to test whether the compounds would be suitable to treat gastrointestinal amebiasis rather than the invasive form of the disease, given that the designed strategy was based on reducing compound permeation across the epithelial cell barrier. […] Trophozoite growth was determined by monitoring the ATP cell content using a high-throughput homogeneous assay developed previously for G. lamblia ([57]). The ATP content serves as a marker of cell integrity since ATP degrades rapidly when cells die and the luminescence signal generated by luciferase requires ATP. The same assay was also adopted in 96-well plates for E. histolytica trophozoite growth measurement, as described in Materials and Methods. A similar E. histolytica trophozoite ATP content assay was described previously ([58]). Fumagillin, TNP-470, and a standard-of-care drug (metronidazole) served as positive controls, and cells without the drug (in the presence of 0.5% dimethyl sulfoxide [DMSO]) served as the negative control.
(§2) E. histolytica strain HM1:IMSS trophozoites were grown at 37°C in TYI-S-33 medium supplemented with penicillin (100 U/ml) and streptomycin sulfate (100 μg/ml) ([65]). Trophozoites were grown anaerobically in borosilicate tubes or T25 flasks, and subcultures were made 1 to 2 times a week. Trophozoites were detached for inoculation by chilling the cultures on ice for 20 min.
The growth inhibition assays were performed in duplicate, once for each compound, for all compounds except fumagillin, which served as a positive control and whose inhibitory ability was measured multiple times as new sets of compounds were tested. All dry compounds except for fumagillin were dissolved in dimethyl sulfoxide (DMSO; Sigma) at a stock concentration of 10 mM and then diluted 1:100 in growth medium to a final compound concentration of 100 μM; fumagillin was diluted to 20 μM. Compound solution aliquots (100 μl) were prepared by 3-fold serial dilutions in growth medium containing 0.5% DMSO and distributed into 96-well assay plates. This was followed by the addition of 10 μl G. lamblia or E. histolytica culture containing 10,000 trophozoites. Fumagillin served as a positive control, and the medium-diluted DMSO alone served as a negative control. The assay plates were placed in a BD GasPak EZ container system (BD Diagnostics) to create an anaerobic growth environment. […] Following incubation, 70 μl/well of the ATPlite reagent (PerkinElmer) was added to the assay plates for one-step lysis and ATP level detection. The luminescent signals of the assay plates were measured on an EnSpire 2300 plate reader (PerkinElmer). Concentration-response titration points for each compound were fitted to a 4-parameter logistic nonlinear regression model using the KaleidaGraph tool, yielding the IC50 value and standard error (SE).

[2] = tested on: G. lamblia GS trophozoites; assay: as above; type: cell-based, Giardia lamblia; details: Giardia duodenalis, 72 h, read-out: Mean [IC50 ± SE(IC50)] G. lamblia GS
Procedure: as §1
Trophozoites of G. lamblia isolates WB and GS were grown anaerobically in borosilicate glass screw-cap culture tubes (Fisher Scientific) at pH 7.0 in Keister’s modified TYI-S-33 medium (ATCC). The medium was supplemented with 10% heat-inactivated bovine serum (Sigma-Aldrich) and 0.05% bovine bile (Sigma-Aldrich). To attain low-oxygen-tension conditions, the tubes were filled to 85% to 90% of their total volume capacity and incubated without shaking at 37°C. Subcultures (2 × 10^5 trophozoites per tube) were made three times a week. Detachment of trophozoites for inoculation was achieved by chilling the cultures on ice for 20 min. Culturing and detachment of metronidazole-resistant G. lamblia assemblage A 713M3 and assemblage B 1279-M1 trophozoites followed the same protocol, except that the growth medium was supplemented with metronidazole, with the concentration gradually being increased to 10 μM.
The growth inhibition assays were performed in duplicate, once for each compound, for all compounds except fumagillin, which served as a positive control and whose inhibitory ability was measured multiple times as new sets of compounds were tested. All dry compounds except for fumagillin were dissolved in dimethyl sulfoxide (DMSO; Sigma) at a stock concentration of 10 mM and then diluted 1:100 in growth medium to a final compound concentration of 100 μM; fumagillin was diluted to 20 μM. Compound solution aliquots (100 μl) were prepared by 3-fold serial dilutions in growth medium containing 0.5% DMSO and distributed into 96-well assay plates. This was followed by the addition of 10 μl G. lamblia or E. histolytica culture containing 10,000 trophozoites. Fumagillin served as a positive control, and the medium-diluted DMSO alone served as a negative control. The assay plates were placed in a BD GasPak EZ container system (BD Diagnostics) to create an anaerobic growth environment. The sealed containers were incubated at 37°C for 72 h. Following incubation, 70 μl/well of the ATPlite reagent (PerkinElmer) was added to the assay plates for one-step lysis and ATP level detection. The luminescent signals of the assay plates were measured on an EnSpire 2300 plate reader (PerkinElmer). Concentration-response titration points for each compound were fitted to a 4-parameter logistic nonlinear regression model using the KaleidaGraph tool, yielding the IC50 value and standard error (SE).

[3] = tested on: E. histolytica HM1:IMSS trophozoites; assay: Trophozoite viability MLC determination (ameba assay); type: cell-based, Entamoeba histolytica; details: 3 days treatment, 3 days proliferation without drug
Procedure: The inhibition of metabolism enables the organism to resume proliferation once treatment is completed. To discriminate between the lethality of the promising compounds and the induction of metabolic inactivity by the promising compounds, the minimum lethal concentration (MLC) values were determined by treating the trophozoites with the test compounds for 3 days and transferring the resulting cultures to medium lacking the compounds for 3 days of proliferation. This assay was described previously for G. lamblia ([18]) and was adapted to E. histolytica in the current study. In addition to measuring MLC values in the G. lamblia WB and GS strains and in E. histolytica, the MLCs were also measured in metronidazole-resistant G. lamblia strains 713M3 and 1279-M1, to confirm that these compounds were also effective when the metronidazole resistance mechanism evolved. […] Thus, even though fumagillin is a potent anti-G. lamblia drug, it might act in part by metabolic inhibition. Fumagillin’s IC50 and MLC values in E. histolytica were within the same range, supporting the true killing mechanism.
as §2
For the MLC assay, compounds were prepared as described above by 2-fold serial dilutions in fresh growth medium, and 50 μl was transferred into the wells of a 96-well plate in duplicate. Confluent E. histolytica trophozoites were diluted in growth medium to a density of 200 cells/μl. Fifty-microliter cultures were distributed in each well to bring the total assay volume to 100 μl. The plates were kept under an anaerobic environment for 72 h at 37°C. Each well was surveyed under a microscope to visualize trophozoite survival, mobility, and attachment. In all cases, duplicate measurements yielded identical growth/death transitions. The plates were chilled on ice for 30 min, and the entire content of each of 4 wells within the growth/death transition of one of the duplicate experiments was transferred for proliferation into 8-ml tubes containing growth medium and no drug. The tubes were incubated under anaerobic condition for 3 days at 37°C and checked under a microscope. The MLC value was the concentration in the tube with the lowest compound concentration without any live organism.

[4] = trophozoite growth, ATP content

| SMILES | IC50 [1, 4] [nM] | IC50 [2, 4] [nM] | MLC E. histolytica HM:IMSS [3] | IC50 [1] [nM] | IC50 [2] [nM] |
| --- | --- | --- | --- | --- | --- |
| COC1C(OC(=O)NC(=O)CN2CCOCC2)CCC2(CO2)C1C1(C)OC1CC=C(C)C (stereo not drawn) [Compound 3] | 4 ± 0.1 | 1.5 ± 0.1 | 3.9 nM (≈ 1.76 ng/mL) | – | – |
| COC1C(OC(=O)NC(=O)CN2CCC(O)CC2)CCC2(CO2)C1C1(C)OC1CC=C(C)C (stereo not drawn) [Compound 4] | 36 ± 4.2 | 4.6 ± 0.4 | 7.8 nM (≈ 3.64 ng/mL) | – | – |
| CO[C@@H]1[C@H](OC(=O)Nc2ccc(C(=O)O)cc2)CC[C@]2(CO2)[C@H]1[C@@]1(C)O[C@@H]1CC=C(C)C [Compound 9, 4-(((((3R,4S,5S,6R)-5-methoxy-4-((2R,3R)-2-methyl-3-(3-methylbut-2-en-1-yl)oxiran-2-yl)-1-oxaspiro[2.5]octan-6-yl)oxy)carbonyl)amino)benzoic acid] | – | 3.8 ± 0.6 | 31.3 nM (≈ 13.9 ng/mL) | 6.7 ± 0.5 | – |
| CCOC(=O)Cc1ccc(NC(=O)OC2CCC3(CO3)C(C3(C)OC3CC=C(C)C)C2OC)cc1 (stereo not drawn) [Compound 11] | 43 ± 3.4 | 3.1 ± 0.5 | 125 nM (≈ 60.9 ng/mL) | – | – |
| COC1C(OC(=O)N2CCC(O)CC2)CCC2(CO2)C1C1(C)OC1CC=C(C)C (stereo not drawn) [Compound 16] | 2.9 ± 0.2 | 1.2 ± 0.04 | 3.9 nM (≈ 1.6 ng/mL) | – | – |
| CO[C@@H]1[C@H](OC(=O)/C=C/C=C/C=C/C=C/C(=O)O)CC[C@]2(CO2)[C@H]1[C@@]1(C)O[C@@H]1CC=C(C)C [Fumagillin, reference compound] | – | – | 78 nM (≈ 35.8 ng/mL) | 47.9 ± 4.8 | 9 ± 2.2 |
| Cc1ncc([N+](=O)[O-])n1CCO [Metronidazole, reference compound] | 318 ± 16 | 12700 ± 1340 | 1,500 nM | – | – |
